Format in all cases: cell-based
For one test, the system named is NFkB-p65. As to the kind of experiment: Western blot of cytoplasmic and nuclear NFkB-p65 protein levels (nucleotranslocation) in LPS-induced BV2 cells. As to conditions: 22.0 μg/ml, 30 min pre-treatment, LPS induction, FIGS. 3 and 4. Here is the method: (§1) Example 2—Western Blot Analysis of Cytoplasmic and Nuclear MSK1 Levels. Western blot analysis was performed in multiple varying formats before optimization was achieved. The BV2 microglia cell line was cultured in Dulbecco's Modified Eagle's Medium (DMEM)—complete medium. The complete medium consisted of DMEM, 1% Ampicillin, and 10% Fetal Bovine Serum (FBS). BV2 microglia cells, at a cell count of approximately 2×10^6, were seeded in each well (6 wells per plate) with 2.0 ml complete medium and cultured overnight in a ThermaForma HepaFilter Series II CO2 Incubator at 37° Celsius. Upon establishing confluence, subconfluent cells were washed out and the wells were prepared with drug pre-treatment after overnight incubation.
(§2) The test drugs (curcuminoids) were procured as follows: curcumin I research standard (03926) (ChromaDex Irvine, CA USA) (97.7% purity); curcumin II research standard (04230) (ChromaDex Irvine, CA USA) (97.3%); curcumin III research standard (B6938) (Sigma-Aldrich St. Louis, Missouri, USA) (97.7% purity); curcumin extract (curcumin I—77.7%, curcumin II—16.9%, curcumin III—0.9%) research standard (03928) (ChromaDex Irvine, CA USA) (95.3% purity); and Lipopolysaccharide (LPS) from E. Coli (L2630) (Sigma-Aldrich St. Louis, Missouri, USA).
(§3) Curcuminoids are not soluble in aqueous medium due to their hydrophobic characteristic. However, curcuminoid extracts are soluble in polar organic solvents, such as DMSO and acetone. In this Example, each curcuminoid preparation was first dissolved in DMSO. DMSO was used in the drug preparation at 0.2%. The drug/DMSO solution was subsequently dissolved in DMEM to achieve a final drug concentration for each curcuminoid preparation tested—22.0 μg/ml curcuminoid. […]
(§4) Total protein concentration for each fraction was determined using a Bio Rad Protein Assay that is based on the Bradford Assay (dye-binding method). […]
(§5) The targets analyzed in the Western Blot included NFkB-p65 and its nucleocytoplasmic translocation, as well as kinases (including MSK1) and their covalent modifications upstream of and involved in the regulation of NFkB. […]
(In general: A western blot detects proteins with antibodies after separation by electrophoresis.)

Test [1] concerns NFkB p65 phosphorylated at the serine 276 phosphosite. As to the kind of experiment: Western blot of NFkB-p65 phosphorylated at serine 276 in LPS-induced BV2 cells. The conditions noted are these: 22.0 μg/ml, 30 min pre-treatment, LPS induction, cytoplasmic and nuclear, FIGS. 5 and 6. Here is the method:
as §1, §2, §3, §4, §5

Test [2] has as its system MSK1 phosphorylated at the serine 376 phosphosite. Nature of the test: Western blot of MSK1 phosphorylated at serine 376 in LPS-induced BV2 cells. As to conditions: 22.0 μg/ml, 30 min pre-treatment, LPS induction, FIGS. 9 and 10. Here is the method: as §1, with “incubation. […]” for “incubation.”
as §4, §5

As for `COc1cc(/C=C/C(=O)/C=C(O)/C=C/c2ccc(O)c(OC)c2)ccc1O` [curcumin I, (1E,6E)-1,7-Bis(4-hydroxy-3-methoxyphenyl)-1,6-heptadiene-3,5-dione, reference compound], the “NFkB-p65 nucleotranslocation (cytosolic and nuclear NFkB-p65 levels relative to total protein)” value in the test on NFkB-p65 is reported as “not significantly inhibited”. Further, in test [1], the “NFkB-p65 serine 276 phosphorylation” value is given as “moderately inhibit”.

Regarding `COc1cc(/C=C/C(=O)CC(=O)/C=C/c2ccc(O)cc2)ccc1O` [curcumin II, (1E,6E)-1-(4-Hydroxy-3-methoxyphenyl)-7-(4-hydroxyphenyl)hepta-1,6-diene-3,5-dione], the “NFkB-p65 nucleotranslocation (cytosolic and nuclear NFkB-p65 levels relative to total protein)” value in the test with NFkB-p65 is recorded as “not significantly inhibited”. The “NFkB-p65 serine 276 phosphorylation” value in test [1] is listed as “moderately inhibit”. Also, in test [2], the “MSK1 serine 376 phosphorylation” value is on record as “inhibit”.

With `O=C(/C=C/c1ccc(O)cc1)CC(=O)/C=C/c1ccc(O)cc1` [curcumin III, (1E,6E)-1,7-bis(4-hydroxyphenyl)hepta-1,6-diene-3,5-dione], in the test on NFkB-p65, the “NFkB-p65 nucleotranslocation (cytosolic and nuclear NFkB-p65 levels relative to total protein)” value was “not significantly inhibited”. In addition, in test [1], the “NFkB-p65 serine 276 phosphorylation” value was “moderately inhibit”.

(Values after patent publication US12090122B2, “Curcumin-based compositions and methods of use thereof” (priority 2017, dated 2024).)
